Source: US20120245137A1 (Zalicus Pharmaceuticals Ltd., priority 2009, published 2012)

The compounds below were run against human α1G T-type channels (Homo sapiens, UniProt O43497) (assay: T-type calcium channel block, whole cell patch clamp, α1G). Details: HEK cells stably expressing human α1G; mainly non-inactivated protocol; values above 10,000 nM represented as 10000.
Assay type: cell-based
Procedure: T-type calcium channel blocking activity was assayed in human embryonic kidneycells, HEK 293 (Invitrogen), stably transfected with the T-type calcium channel subunits. Briefly, cells were cultured in Dulbecco's modified eagle medium (DMEM) supplemented with 10% fetal bovine serum, 200 U/ml penicillin, and 0.2 mg/mL streptomycin at 37° C. with 5% CO2. At 85% confluency, cells were split with 0.25% trypsin/1 mM EDTA and plated at 10% confluency on glass coverslips. At 12 hours, the medium was replaced, and the cells stably transfected using a standard calcium phosphate protocol and the appropriate calcium channel cDNA's. Fresh DMEM was supplied, and the cells transferred to 28° C./5% CO2.
Standard patch-clamp techniques were employed to identify blockers of T-type currents. Briefly, previously described HEK cell lines stably expressing human α1G, α1H, and α1I T-type channels were used for all the recordings (passage #: 4-20, 37° C., 5% CO2). Whole cell patch clamp experiments were performed using an Axopatch 200B amplifier (Axon Instruments, Burlingame, Calif.) linked to a personal computer equipped with pCLAMP software. Data were analyzed using Clampfit (Axon Instruments) and SigmaPlot 4.0 (Jandel Scientific). To obtain T-type currents, plastic dishes containing semi-confluent cells were positioned on the stage of a ZEISS AXIOVERT S100 microscope after replacing the culture medium with external solution (Table 2). Whole-cell patches were obtained using pipettes (borosilicate glass with filament, O.D.: 1.5 mm, I.D.: 0.86 mm, 10 cm length), fabricated on a SUTTER P-97 puller with resistance values of ˜5 MΩ (Table 3).
T-type currents were reliably obtained by using two voltage protocols: • “non-inactivating,” and • “inactivation.”
Test compounds were dissolved in external solution, 0.1-0.01% DMSO. After ˜10 minutes rest, they were applied by gravity close to the cell using a WPI microfil tubing. The “non-inactivated” pre-pulse was used to examine the resting block of a compound. The “inactivated” protocol was employed to study voltage-dependent block.

Chain of human α1G T-type channels (O43497 whole entry): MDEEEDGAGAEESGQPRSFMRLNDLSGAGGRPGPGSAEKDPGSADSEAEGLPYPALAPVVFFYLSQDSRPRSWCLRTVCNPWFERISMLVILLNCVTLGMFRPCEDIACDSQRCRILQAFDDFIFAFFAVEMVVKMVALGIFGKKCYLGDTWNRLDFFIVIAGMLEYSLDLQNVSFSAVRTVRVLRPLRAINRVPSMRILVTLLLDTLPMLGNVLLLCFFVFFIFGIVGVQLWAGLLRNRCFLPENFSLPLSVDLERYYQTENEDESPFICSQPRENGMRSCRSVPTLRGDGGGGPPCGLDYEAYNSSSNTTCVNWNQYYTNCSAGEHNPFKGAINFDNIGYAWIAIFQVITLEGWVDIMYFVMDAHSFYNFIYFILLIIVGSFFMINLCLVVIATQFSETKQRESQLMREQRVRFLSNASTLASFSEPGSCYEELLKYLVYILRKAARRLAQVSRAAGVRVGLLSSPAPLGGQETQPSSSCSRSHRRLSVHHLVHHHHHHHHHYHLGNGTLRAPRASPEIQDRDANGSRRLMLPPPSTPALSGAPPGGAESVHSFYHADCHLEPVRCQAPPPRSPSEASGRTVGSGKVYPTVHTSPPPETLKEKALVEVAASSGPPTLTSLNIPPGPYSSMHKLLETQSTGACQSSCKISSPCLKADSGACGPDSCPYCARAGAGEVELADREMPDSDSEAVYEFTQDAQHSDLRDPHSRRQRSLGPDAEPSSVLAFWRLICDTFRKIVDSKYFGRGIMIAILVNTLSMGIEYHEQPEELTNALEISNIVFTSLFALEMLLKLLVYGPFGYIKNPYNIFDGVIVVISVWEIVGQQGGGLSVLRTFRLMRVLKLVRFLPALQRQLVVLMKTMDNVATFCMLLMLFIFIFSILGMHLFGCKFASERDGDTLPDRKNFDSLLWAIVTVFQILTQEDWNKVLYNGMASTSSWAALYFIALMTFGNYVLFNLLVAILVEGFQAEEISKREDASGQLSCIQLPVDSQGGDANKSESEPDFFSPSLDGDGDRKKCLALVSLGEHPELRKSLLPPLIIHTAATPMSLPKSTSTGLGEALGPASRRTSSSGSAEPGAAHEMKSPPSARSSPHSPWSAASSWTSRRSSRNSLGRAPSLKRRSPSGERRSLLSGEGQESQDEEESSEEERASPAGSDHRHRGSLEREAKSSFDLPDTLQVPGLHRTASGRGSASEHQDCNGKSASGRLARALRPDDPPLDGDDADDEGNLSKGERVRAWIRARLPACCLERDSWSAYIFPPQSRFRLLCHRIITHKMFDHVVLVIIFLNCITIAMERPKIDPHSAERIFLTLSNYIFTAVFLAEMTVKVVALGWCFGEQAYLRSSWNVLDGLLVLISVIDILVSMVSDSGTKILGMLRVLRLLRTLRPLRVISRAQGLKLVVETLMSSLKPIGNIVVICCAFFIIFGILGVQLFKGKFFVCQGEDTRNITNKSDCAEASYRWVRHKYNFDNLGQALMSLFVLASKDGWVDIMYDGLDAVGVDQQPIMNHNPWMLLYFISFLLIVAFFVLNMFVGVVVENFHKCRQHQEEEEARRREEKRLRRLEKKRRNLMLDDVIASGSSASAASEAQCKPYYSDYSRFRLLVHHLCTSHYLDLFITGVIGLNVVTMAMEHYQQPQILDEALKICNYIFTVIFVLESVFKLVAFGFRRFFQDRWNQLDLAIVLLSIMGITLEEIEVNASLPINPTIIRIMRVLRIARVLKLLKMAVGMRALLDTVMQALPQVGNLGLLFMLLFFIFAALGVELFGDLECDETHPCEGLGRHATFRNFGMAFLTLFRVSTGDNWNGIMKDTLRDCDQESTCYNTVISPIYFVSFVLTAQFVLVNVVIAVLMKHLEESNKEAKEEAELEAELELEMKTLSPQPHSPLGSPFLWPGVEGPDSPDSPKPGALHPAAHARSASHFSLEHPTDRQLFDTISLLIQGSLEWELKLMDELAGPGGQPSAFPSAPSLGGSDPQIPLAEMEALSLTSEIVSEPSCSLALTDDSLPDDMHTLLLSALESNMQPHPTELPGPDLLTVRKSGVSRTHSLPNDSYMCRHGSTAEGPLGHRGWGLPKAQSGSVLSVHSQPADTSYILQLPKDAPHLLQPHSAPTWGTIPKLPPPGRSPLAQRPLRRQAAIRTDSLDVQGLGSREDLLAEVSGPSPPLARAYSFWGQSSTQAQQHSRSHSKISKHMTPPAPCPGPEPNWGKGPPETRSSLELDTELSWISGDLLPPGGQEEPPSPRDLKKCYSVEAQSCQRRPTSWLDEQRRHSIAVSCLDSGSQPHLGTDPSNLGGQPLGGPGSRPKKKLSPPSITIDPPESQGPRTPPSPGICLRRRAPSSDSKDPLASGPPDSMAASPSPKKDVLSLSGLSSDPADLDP

Compound | IC50 [nM]
4-(trifluoromethyl)-N-((1R,4R)-4- ((3- (trifluoromethyl)phenylsulfonyl) methyl)cyclohexyl)picolinamide [Compound 103] | > 10000
Cn1nc(C(F)(F)F)cc1C(=O)NCC1(C)CCC(F)(S(=O)(=O)c2cccc(C(F)(F)F)c2)CC1 (stereo not drawn) [Compound 151, N-((4-fluoro-1-methyl-4-(3-(trifluoromethyl)phenylsulfonyl)cyclohexyl)methyl)-l-methyl-3-(trifluoromethyl)-1H-pyrazole-5-carboxamide] | 2900
CC1(CNC(=O)c2ccc(C(F)(F)F)cn2)CCC(F)(S(=O)(=O)c2cccc(C(F)(F)F)c2)CC1 (stereo not shown) [Compound 152, N-((4-fluoro-1-methyl-4-(3-(trifluoromethyl)phenylsulfonyl)cyclohexyl)methyl)-5-(trifluoromethyl)picolinamide] | 3600
Cc1cccc(C(=O)NCC(C)(C)S(=O)(=O)c2cccc(C(F)(F)F)c2)n1 [Compound 485, 6-methyl-N-(2-methyl-2-(3-(trifluoromethyl)phenylsulfonyl)propyl) picolinamide] | 710
CC(C)(CNS(=O)(=O)c1cccc2nonc12)S(=O)(=O)c1cccc(C(F)(F)F)c1 [Compound 493] | 680
CC(C)(CNS(=O)(=O)c1ccc(S(C)(=O)=O)cc1)S(=O)(=O)c1cccc(C(F)(F)F)c1 [Compound 497, N-(2-methyl-2-(3-(trifluoromethyl)phenylsulfonyl)propyl)-4-(methylsulfonyl) benzenesulfonamide] | 520
CN(CCC(C)(C)S(=O)(=O)c1cccc(C(F)(F)F)c1)C(=O)c1ccc(C(F)(F)F)cc1S(C)(=O)=O [Compound 508, N-methyl-N-(3-methyl-3-(3-(trifluoromethyl)phenylsulfonyl)butyl)-2-(methylsulfonyl)-4-(trifluoromethyl)benzamide] | 850
CN(CCC(C)(C)S(=O)(=O)c1cccc(C(F)(F)F)c1)C(=O)c1cc(C(F)(F)F)nn1C [Compound 509, N,1-dimethyl-N-(3-methyl-3-(3-(trifluoromethyl)phenylsulfonyl)butyl)-3-(trifluoromethyl)-1H-pyrazole-5-carboxamide] | 650
CN(CCC(C)(C)S(=O)(=O)c1cccc(C(F)(F)F)c1)C(=O)c1ccc(C(F)(F)F)nc1 [Compound 511, N-methyl-N-(3-methyl-3-(3-(trifluoromethyl)phenylsulfonyl)butyl)-6-(trifluoromethyl)nicotinamide] | 960
CN(CCC(C)(C)S(=O)(=O)c1cccc(C(F)(F)F)c1)C(=O)c1ccc(C(F)(F)F)cn1 [Compound 515, N-methyl-N-(3-methyl-3-(3-(trifluoromethyl)phenylsulfonyl)bulyl)-5-(trifluoromethyl)picolinamide] | 610
CC(C)(CCNC(=O)c1cc(S(C)(=O)=O)ccc1Cl)S(=O)(=O)c1cccc(C(F)(F)F)c1 [Compound 530, 2-chloro-N-(3-methyl-3-(3-(trifluoromethyl)phenylsulfonyl)butyl)-5-(methylsulfonyl)benzamide] | 940
CC(C)(CCNC(=O)c1ccnc(C(F)(F)F)n1)S(=O)(=O)c1cc(F)cc(C(F)(F)F)c1 [Compound 534, N-(3-(3-fluoro-5-(trifluoromethyl)phenylsulfonyl)-3-methylbutyl)-2-(trifluoromethyl)pyrimidine-4-carboxamide] | 830

What follows are compounds tested against N-type calcium channel subunits (α1B, α2δ, and β3a) (Homo sapiens, UniProt Q00975) (assay: Block of Cav2.2 channel, whole cell voltage clamp, manual and PatchXpress). Details: Table 5; table follows Assay Example 3 (whole cell voltage clamp / PatchXpress); assay not given.
Assay type: cell-based
Procedure, shortened: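 Percent block taken as current amplitude ratio with versus without compound, applied in rising doses; IC50 fitted where one cell received multiple doses. Protocol: 50 ms pulses to +20 mV at 0.067 Hz from […] or −90 mV holding; P/n leak subtraction, no junction-potential correction; manual and PatchXpress recordings.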

Compound | IC50 [nM]
4-(trifluoromethyl)-N-((1R,4R)-4- ((3- (trifluoromethyl)phenylsulfonyl) methyl)cyclohexyl)picolinamide [Compound 103] | 460
Cn1nc(C(F)(F)F)cc1C(=O)NCC1(C)CCC(F)(S(=O)(=O)c2cccc(C(F)(F)F)c2)CC1 (stereo not drawn) [Compound 151, N-((4-fluoro-1-methyl-4-(3-(trifluoromethyl)phenylsulfonyl)cyclohexyl)methyl)-l-methyl-3-(trifluoromethyl)-1H-pyrazole-5-carboxamide] | 580
CC1(CNC(=O)c2ccc(C(F)(F)F)cn2)CCC(F)(S(=O)(=O)c2cccc(C(F)(F)F)c2)CC1 (stereo not shown) [Compound 152, N-((4-fluoro-1-methyl-4-(3-(trifluoromethyl)phenylsulfonyl)cyclohexyl)methyl)-5-(trifluoromethyl)picolinamide] | 550
O=C(Nc1ccc(Oc2ccc(F)cc2)cc1)[C@H]1C[C@H](S(=O)(=O)c2cccc(C(F)(F)F)c2)C1 [Compound 406, (1R,3R)-N-(4-(4-fluorophenoxy)phenyl)-3-(3-(trifluoromethyl)phenylsulfonyl)cyclobutane carboxamide] | 1540
O=C(Nc1ncccc1C(F)(F)F)[C@H]1C[C@@H](S(=O)(=O)c2cccc(C(F)(F)F)c2)C1 [Compound 414, (1S,3S)-3-(3-(trifluoromethyl)phenylsulfonyl)-N-(3-(trifluoromethyl)pyridin-2-yl)cyclobutanecarboxamide] | 1360
Cc1nn(C)c(C)c1S(=O)(=O)NC[C@H]1C[C@H](S(=O)(=O)c2cccc(C(F)(F)F)c2)C1 [Compound 421, 1,3,5-trimethyl-N-(((1R,3R)-3-(3-(trifluoromethyl)phenylsulfonyl)cyclobutyl)methyl)-1H-pyrazole-4-sulfonamide] | 5580
O=C(N[C@H]1C[C@@H](S(=O)(=O)c2cccc(C(F)(F)F)c2)C1)c1ccc(C(F)(F)F)nc1 [Compound 430, 6-(trifluoromethyl)-N-((1S,3S)-3-(3-(triffuoromethyl)phenylsulfonyl)cyclobutyl) nicotinamide] | > 10000
CC([C@H]1C[C@H](NC(=O)c2ncc(C(F)(F)F)cc2S(C)(=O)=O)C1)S(=O)(=O)c1cccc(C(F)(F)F)c1 (stereo partly drawn) [Compound 435, 3-(methylsulfonyl)-5-(trifluoromethyl)-N-((1R,3R)-3-((R)-1-(3-(trifluoromethyl)phenylsulfonyl)ethyl)cyclobutyl) picolinamide] | 1470
CC(C)([C@H]1C[C@H](NC(=O)c2ncc(C(F)(F)F)cc2S(C)(=O)=O)C1)S(=O)(=O)c1cccc(C(F)(F)F)c1 [Compound 436, 3-(methylsulfonyl)-5-(trifluoromethyl)-N-((1R,3R)-3-(2-(3-(trifluoromethyl)phenylsulfonyl)propan-2-yl)cyclobutyl)picolinamide] | 630
CC(C)([C@H]1C[C@H](NC(=O)c2cnc(C(F)(F)F)nc2)C1)S(=O)(=O)c1cccc(C(F)(F)F)c1 [Compound 437, 2-(trifluoromethyl)-N-((1R,3R)-3-(2-(3-(trifluoromethyl)phenylsulfonyl)propan-2-yl)cyclobutyl)pyrimidine-5-carboxamide] | 720
CC(C)([C@H]1C[C@H](NC(=O)c2ccc(C(F)(F)F)cc2S(C)(=O)=O)C1)S(=O)(=O)c1cccc(C(F)(F)F)c1 [Compound 439, 2-(methylsulfonyl)-4-(trifluoromethyl)-N-((1R,3R)-3-(2-(3-(tritluoromethyl)phenylsulfonyl)propan-2-yl)cyclobutyl)benzamide] | 400
CC(C)([C@H]1C[C@H](NC(=O)c2ccc(F)c(C(F)(F)F)c2)C1)S(=O)(=O)c1cccc(C(F)(F)F)c1 [Compound 440, 4-fluoro-3-(trifluoromethyl)-N-((1R,3R)-3-(2-(3-(trifluoromethyl)phenylsulfonyl)propan-2-yl)cyclobutyl)benzamide] | 80
CC(C)([C@H]1C[C@H](NC(=O)c2ccc(F)c(Cl)c2)C1)S(=O)(=O)c1cccc(C(F)(F)F)c1 [Compound 441, 3-chloro-4-fluoro-N-((1R,3R)-3-(2-(3-(trifluoromethyl)phenylsulfonyl)propan-2-yl)cyclobutyl)benzamide] | 80
O=S(=O)(c1cccc(C(F)(F)F)c1)[C@H]1C[C@H](c2c[nH]c(-c3ccc(C(F)(F)F)cc3)n2)C1 [Compound 443, 2-(4-(trifluoromethyl)phenyl)-4-((1R,3R)-3-(3-(trifluoromethyl)phenylsulfonyI)cyclobutyl)-1H-imidazole] | 440
O=S(=O)(c1cccc(C(F)(F)F)c1)[C@H]1C[C@H](c2c[nH]c(-c3ccc(OC(F)(F)F)cc3)n2)C1 [Compound 444, 2-(4-(trifluoromethoxy)phenyl)-4-((1R,3R)-3-(3-(trifluoromethyl)phenylsulfonyl)cyclobutyl)-1H-imidazole] | 290
O=S(=O)(c1cccc(C(F)(F)F)c1)[C@H]1C[C@H](c2c[nH]c(-c3ccc(C(F)(F)F)nc3)n2)C1 [Compound 445, 2-(trifluoromethyl)-5-(4-((1R,3R)-3-(3-(trifluoromethyl)phenylsulfonyl)cyclobutyl)-1H-imidazol-2-yl)pyridine] | 200
O=S(=O)(c1cccc(C(F)(F)F)c1)[C@H]1C[C@@H](c2c[nH]c(-c3ccc(C(F)(F)F)nc3)n2)C1 [Compound 446, 2-(trifluoromethyl)-5-(4-((1S,3S)-3-(3-(trifluoromethyl)phenylsulfonyl)cyclobutyl)-1H-imidazoI-2-yl)pyridine] | 810
CC(C)(C)c1nc([C@H]2C[C@@H](S(=O)(=O)c3cccc(C(F)(F)F)c3)C2)c[nH]1 [Compound 447, 2-tert-butyl-4-((1S,3S)-3-(3-(trifluoromethyl)phenylsulfonyl)cyclobutyl)-1H-imidazole] | 1830
CC(C)(C)c1nc([C@H]2C[C@H](S(=O)(=O)c3cccc(C(F)(F)F)c3)C2)c[nH]1 [Compound 448, 2-tert-butyl-4-((1R,3R)-3-(3-(trifluoromethyl)phenylsulfonyl)cyclobutyl)-1H-imidazole] | 2110
